Read-outs that look alike come from different tables or passages of the source.
Test system: human Ewing's sarcoma TC-71
Assay type: in vivo
Details: for Average body weight change in % per mouse at nadir / Drug death / Regressions Complete / Regressions Partial / Tumor free survivors at day 120 / day of nadir / Biological interpretation / ΔT/ΔC in % (day 21): 16
Method: This efficacy may be quantified, for example, as changes in tumor volume for each treated (T) and control (C) group, which are calculated for each animal and each day by subtracting the tumor volume on the day of first treatment (staging day) from the tumor volume on the specified observation day. This allows calculating the tumor growth inhibition: ΔT/ΔC=(median delta T/median delta C)×100. Individual tumor volume changes from baseline are thereafter analyzed by a non-parametric two-way ANOVA-TYPE (with factors: group and repeated days) followed by a post-hoc contrasts analysis, with Bonferroni-Holm adjustment for multiplicity, comparing all treated groups to the control group. […] A probability less than 5% (p<0.05) was considered as significant.
Based on the National Cancer Institute (NCl) standards, a ΔT/ΔC≦40% is the minimal level required to declare activity.
The tumor doubling time (in days; Td) was estimated from the plot of the log linear growth of the control group tumors in exponential growth (100 to 1000 mm^3 range) [T. H. Corbett et al., Cancer, 40: 2660-2680 (1977); F. M. Schabel et al., Cancer Drug Development, Part B, Methods in Cancer Research, 17: 3-51, New York, Academic Press Inc. (1979)].
This efficacy may also be quantified by the number of tumor regressions observed after therapy. Individual mice reporting a tumor volume ≦50% of the Day 0 measurement for two consecutive measurements over a seven day period were considered partial responders (PR). Individual mice lacking palpable tumors (<4×4 mm^2 for two consecutive measurements over a seven day period) were classified as complete responders (CR); a CR that persisted until study completion was considered a tumor-free survivor (TFS).
The animals subjected to the experiment are subcutaneously grafted unilaterally with approximately 30 mg of a tumor fragment on day 0. The animals are implanted with a human tumor xenografted in immunocompromized mice. Several days post tumor implantation, mice are randomized according to their body weight to the different groups of treatments and controls. The animals are observed every day. […] The groups are then weighed once or twice a week until the end of the trial.
The tumors are measured 1 to 5 times a week, depending on the tumor doubling time, until the tumor reaches approximately 1,000 mm^3, or until the animal dies (if this occurs before the tumor reaches 1,000 mm^3). The animals are necropsied immediately after euthanasia or death.
The selected tumor model was a human Ewing's sarcoma TC-71, xenografted in SCID mice [Whang-Peng J, et al. Cancer Genet Cytogenet. 1986 Apr. 1; 21(3):185208].
Treatment solutions were prepared first by mixing 1 volume of ethanolic stock solution and 1 volume of polysorbate 80, then by adding 18 volumes of glucose 5% in water.

[1] = 3.5 mg/kg per injection (total 7.0) IV days 12
[2] = 3.5 mg/kg per injection (total 7.0) IV days 12, listed as DOCETAXEL
[3] = 3.5 mg/kg per injection (total 7.0) IV days 12, listed as docetaxel
[4] = 5.6 mg/kg per injection (total 11.2) IV days 12
[5] = 9.0 mg/kg per injection (total 18) IV days 12
[6] = 9.0 mg/kg per injection (total 18) IV days 12, listed as DOCETAXEL
[7] = 9.0 mg/kg per injection (total 18) IV days 12, listed as docetaxel
[8] = 14.5 mg/kg per injection (total 29) IV days 12
[9] = 14.5 mg/kg per injection (total 29) IV days 12, listed as DOCETAXEL
[10] = 5.6 mg/kg per injection (total 11.2) IV days 12, listed as CABAZITAXEL
[11] = 9.0 mg/kg per injection (total 18) IV days 12, listed as CABAZITAXEL
[12] = 14.5 mg/kg per injection (total 29) IV days 12, listed as CABAZITAXEL

## CC(=O)O[C@@]12CO[C@@H]1C[C@H](O)[C@@]1(C)C(=O)[C@H](O)C3=C(C)[C@@H](OC(=O)[C@H](O)[C@@H](NC(=O)OC(C)(C)C)c4ccccc4)C[C@@](O)([C@@H](OC(=O)c4ccccc4)[C@H]21)C3(C)C [Docetaxel, docetaxel]
[1]
  Average body weight change in % per mouse at nadir: −1.8%
  Drug death: 0/7
  Regressions Complete: 0/7
  Regressions Partial: 0/7
  Tumor free survivors at day 120: 0/7
  day of nadir: 13 days
[2]
  Biological interpretation: Inactive
  ΔT/ΔC in % (day 21): 77%
[3]
  Biological interpretation: inactive
  ΔT/ΔC in % (day 21): > 40%
3.5 mg/kg, day 19
  Tumor volume changes from baseline: Median (nMad): 629
3.5 mg/kg, day 21
  Tumor volume changes from baseline: Median (nMad): 1044
[4]
  Average body weight change in % per mouse at nadir: −13.7%
  Drug death: 0/7
  Regressions Complete: 0/7
  Regressions Partial: 0/7
  Tumor free survivors at day 120: 0/7
  day of nadir: 22 days
  ΔT/ΔC in % (day 21): 31%
5.6 mg/kg per injection (total 11.2) IV days 12, listed as DOCETAXEL
  Biological interpretation: Active
5.6 mg/kg per injection (total 11.2) IV days 12, listed as docetaxel
  Biological interpretation: active
5.6 mg/kg, day 19
  Tumor volume changes from baseline: Median (nMad): 371
5.6 mg/kg, day 21
  Tumor volume changes from baseline: Median (nMad): 416
5.6 mg/kg, day 26
  Tumor volume changes from baseline: Median (nMad): 1022.5
[5]
  Average body weight change in % per mouse at nadir: −10.8%
  Drug death: 0/7
  Regressions Complete: 0/7
  Tumor free survivors at day 120: 0/7
  day of nadir: 23 days
[6]
  Biological interpretation: Highly Active
  Regressions Partial: 2/7
  ΔT/ΔC in % (day 21): <0%
[7]
  Biological interpretation: highly active
  Regressions Partial: 5/7
9 mg/kg, day 19
  Tumor volume changes from baseline: Median (nMad): 139
9 mg/kg, day 21
  Tumor volume changes from baseline: Median (nMad): −36
9 mg/kg, day 26
  Tumor volume changes from baseline: Median (nMad): 158
9 mg/kg, day 30
  Tumor volume changes from baseline: Median (nMad): 406 (252)
9 mg/kg, day 34
  Tumor volume changes from baseline: Median (nMad): 867 (209)
[8]
  Average body weight change in % per mouse at nadir: −12.4%
  Drug death: 0/7
  Regressions Complete: 2/7
  Regressions Partial: 6/7
  Tumor free survivors at day 120: 1/7
  day of nadir: 23 days
[9]
  Biological interpretation: Highly Active
  ΔT/ΔC in % (day 21): <0%
14.5 mg/kg per injection (total 29) IV days 12, listed as docetaxel
  Biological interpretation: highly active
14.5 mg/kg, day 16
  Tumor volume changes from baseline: Median (nMad): 154
14.5 mg/kg, day 19
  Tumor volume changes from baseline: Median (nMad): −72
14.5 mg/kg, day 21
  Tumor volume changes from baseline: Median (nMad): −130
14.5 mg/kg, day 26
  Tumor volume changes from baseline: Median (nMad): −130
14.5 mg/kg, day 28
  Tumor volume changes from baseline: Median (nMad): −144
14.5 mg/kg, day 30
  Tumor volume changes from baseline: Median (nMad): −126
14.5 mg/kg, day 34
  Tumor volume changes from baseline: Median (nMad): −49
14.5 mg/kg, day 36
  Tumor volume changes from baseline: Median (nMad): 75 (330.6)
14.5 mg/kg, day 40
  Tumor volume changes from baseline: Median (nMad): 763

## CO[C@H]1C(=O)[C@]2(C)[C@@H](OC)C[C@H]3OC[C@@]3(OC(C)=O)[C@H]2[C@H](OC(=O)c2ccccc2)[C@]2(O)C[C@H](OC(=O)[C@H](O)[C@@H](NC(=O)OC(C)(C)C)c3ccccc3)C(C)=C1C2(C)C [Cabazitaxel, 4α-acetoxy-2α-benzoyloxy-5β,20-epoxy-1β-hydroxy-7β,10β-dimethoxy-9-oxo-11-taxen-13α-yl (2R,3S)-3-tert-butoxycarbonyl-amino-2-hydroxy-3-phenylpropionate]
[1]
  Average body weight change in % per mouse at nadir: −2.3%
  Biological interpretation: active
  Drug death: 0/7
  Regressions Complete: 0/7
  Regressions Partial: 0/7
  Tumor free survivors at day 120: 0/7
  day of nadir: 21 days
  ΔT/ΔC in % (day 21): 27%
3.5 mg/kg per injection (total 7.0) IV days 12, listed as CABAZITAXEL
  Biological interpretation: Active
[4]
  Average body weight change in % per mouse at nadir: −7.0%
  Drug death: 0/7
  Regressions Complete: 0/7
  Regressions Partial: 6/7
  Tumor free survivors at day 120: 0/7
  day of nadir: 18 days
[10]
  Biological interpretation: Highly Active
  ΔT/ΔC in % (day 21): <0%
5.6 mg/kg per injection (total 11.2) IV days 12, listed as cabazitaxel
  Biological interpretation: highly active
5.6 mg/kg, day 26
  Tumor volume changes from baseline: Median (nMad): −162 (65.2)
[5]
  Average body weight change in % per mouse at nadir: −7.0%
  Drug death: 0/7
  Regressions Complete: 6/7
  Regressions Partial: 7/7
  Tumor free survivors at day 120: 6/7
  day of nadir: 18 days
[11]
  Biological interpretation: Highly Active
  ΔT/ΔC in % (day 21): <0%
9.0 mg/kg per injection (total 18) IV days 12, listed as cabazitaxel
  Biological interpretation: highly active
9 mg/kg, day 26
  Tumor volume changes from baseline: Median (nMad): −196 (51.9)
9 mg/kg, day 28
  Tumor volume changes from baseline: Median (nMad): −196 (50.4)
9 mg/kg, day 30
  Tumor volume changes from baseline: Median (nMad): −196 (50.4)
9 mg/kg, day 34
  Tumor volume changes from baseline: Median (nMad): −196 (72.6)
[8]
  Average body weight change in % per mouse at nadir: −9.0%
  Drug death: 0/7
  Regressions Complete: 7/7
  Regressions Partial: 7/7
  Tumor free survivors at day 120: 6/7
  day of nadir: 23 days
[12]
  Biological interpretation: Highly Active
  ΔT/ΔC in % (day 21): <0%
14.5 mg/kg per injection (total 29) IV days 12, listed as cabazitaxel
  Biological interpretation: highly active
14.5 mg/kg, day 26
  Tumor volume changes from baseline: Median (nMad): −184 (43)
14.5 mg/kg, day 28
  Tumor volume changes from baseline: Median (nMad): −194 (47.4)
14.5 mg/kg, day 30
  Tumor volume changes from baseline: Median (nMad): −198 (53.4)
14.5 mg/kg, day 34
  Tumor volume changes from baseline: Median (nMad): −198 (53.4)
14.5 mg/kg, day 36
  Tumor volume changes from baseline: Median (nMad): −180 (53.4)
14.5 mg/kg, day 40
  Tumor volume changes from baseline: Median (nMad): −180 (53.4)
Conclusion of example 2
  antitumor activity compared with docetaxel: more active than docetaxel

Reference: patent publication US20140350273A1, “PEDIATRIC USES OF CABAZITAXEL” (AVENTIS PHARMA S.A., priority 2012, published 2014)
